This passage reports inhibition results from patent publication US5242930A, “Azabicyclic compounds, pharmaceutical compositions containing them and their use in therapy” (Merck Sharp & Dohme Ltd., priority 1991, dated 1993).

In general, inhibition refers to the share of the control response that was lost under treatment.

Molecules are shown by their SMILES. Counter-ions that a name gives are not always drawn. A value given as a limit tells only on which side of the number the result lay.

The subject of this test is longitudinal muscle of guinea pig ileum. Description: Antagonism of the contraction elicited by SPOMe (substance P methyl ester) on guinea pig ileum longitudinal muscle (isometric contraction). To be noted: Cavia porcellus, compound at 1.0 μM, 0.1μM SPOMe.
As for `O=[N+]([O-])c1cccc(CO[C@H]2C3CCN(CC3)[C@H]2C(c2ccccc2)c2ccccc2)c1` (relative stereo) [Example 1, cis-2-(Diphenylmethyl)-3-(3-nitrobenzyloxy)-1-azabicyclo[2.2.2]octane oxalate], the inhibition at 1 µM is > 70%.
In the case of `FC(F)(F)c1ccccc1CO[C@H]1C2CCN(CC2)[C@H]1C(c1ccccc1)c1ccccc1` (relative stereo) [Example 2, cis-2-(Diphenylmethyl)-3-[2-(trifluoromethyl)benzyloxy]-1-azabicyclo[2.2.2]octane oxalate], the inhibition at 1 µM is > 70%.
The result for `Clc1cccc(CO[C@H]2C3CCN(CC3)[C@H]2C(c2ccccc2)c2ccccc2)c1` (relative stereo) [Example 4, cis-3-(3-Chlorobenzyloxy)-2-(diphenylmethyl)-1-azabicyclo[2.2.2]octane oxalate] reads > 70%; that for `Fc1cc(F)cc(CO[C@H]2C3CCN(CC3)[C@H]2C(c2ccccc2)c2ccccc2)c1` (relative stereo) [Example 7, cis-3-(3,5-Difluorobenzyloxy)-2-(diphenylmethyl)-1-azabicyclo[2.2.2]octane oxalate], > 70%.
In the case of `COc1ccc(CO[C@H]2C3CCN(CC3)[C@H]2C(c2ccccc2)c2ccccc2)cc1` (relative stereo) [Example 8, cis-2-(Diphenylmethyl)-3-(4-methoxybenzyloxy)-1-azabicyclo[2.2.2]octane oxalate], the inhibition at 1 µM is > 70%.
